Results published in US10098949B2, “Adsorption of immunopotentiators to insoluble metal salts” (GlaxoSmithKline Biologicals SA, priority 2010, dated 2018).
Where two headings read alike, the source gives them in different places. Each block holds one compound with its values, some of them ahead of it.

Columns and labels:
human PBMCs = experiment: Activity in human PBMCs; assay type: cell-based
[1] = Muscle levels 24 hours after intramuscular injection; assay type: in vivo, Balb/C mice; conditions: for level of compound in muscle: 24 hours after i.m. injection
[2] = system: serogroup B meningococcus; assay type: in vivo
[3] = Solubility in water and in histidine buffer; assay type: physicochemical; conditions: pH 6.8
human TLR7 = target: T1, human TLR7 (Homo sapiens, UniProt Q9NYK1); experiment: HEK293 human TLR7 NF-κB luciferase reporter assay; assay type: cell-based; conditions: HEK293 cells
T1 construct: expressed in transfected cells; host or cells: HEK293
T1 sequence (Q9NYK1 27-1049): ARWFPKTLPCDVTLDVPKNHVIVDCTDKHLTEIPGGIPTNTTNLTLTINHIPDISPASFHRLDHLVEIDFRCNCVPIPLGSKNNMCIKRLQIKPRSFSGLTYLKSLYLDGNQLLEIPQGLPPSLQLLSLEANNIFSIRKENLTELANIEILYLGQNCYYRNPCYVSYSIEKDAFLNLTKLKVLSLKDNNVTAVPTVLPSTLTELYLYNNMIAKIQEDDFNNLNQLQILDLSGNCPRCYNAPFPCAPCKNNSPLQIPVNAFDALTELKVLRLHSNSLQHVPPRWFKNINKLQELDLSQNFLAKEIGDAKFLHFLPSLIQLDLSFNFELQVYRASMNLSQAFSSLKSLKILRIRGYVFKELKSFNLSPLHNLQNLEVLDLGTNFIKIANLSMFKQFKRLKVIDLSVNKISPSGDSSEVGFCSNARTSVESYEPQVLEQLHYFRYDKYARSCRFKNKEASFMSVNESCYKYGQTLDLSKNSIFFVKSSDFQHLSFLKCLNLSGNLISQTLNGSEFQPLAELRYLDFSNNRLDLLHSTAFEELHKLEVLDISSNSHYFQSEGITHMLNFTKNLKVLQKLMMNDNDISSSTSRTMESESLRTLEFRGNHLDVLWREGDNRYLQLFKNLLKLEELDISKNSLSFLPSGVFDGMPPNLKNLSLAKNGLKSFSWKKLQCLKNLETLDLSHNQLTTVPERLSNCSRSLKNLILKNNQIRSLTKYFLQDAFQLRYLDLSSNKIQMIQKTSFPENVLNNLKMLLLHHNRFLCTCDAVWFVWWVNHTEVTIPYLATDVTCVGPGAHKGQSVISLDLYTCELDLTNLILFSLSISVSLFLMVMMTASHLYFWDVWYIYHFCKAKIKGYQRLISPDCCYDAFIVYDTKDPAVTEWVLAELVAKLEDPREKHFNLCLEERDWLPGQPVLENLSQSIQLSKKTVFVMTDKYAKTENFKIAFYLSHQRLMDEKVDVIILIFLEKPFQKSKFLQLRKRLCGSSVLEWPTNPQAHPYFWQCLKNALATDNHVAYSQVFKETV
Procedure: The activity of this compound is assessed in an assay using HEK293 cells which are stably transfected with human TLR7 and an NF-κB-driven luciferase reporter vector (pNifty-Luciferase). As a control assay, normal HEK293 transfected with pNifty-Luc are used. Cells are cultured in DMEM supplemented with 2 mM L-glutamine, 10% heart inactivated FBS, 1% penicillin and streptomycin, 2 μg/ml puromycin and 5 μg/ml of blasticidin. Bright-Glo™ Luciferase assay buffer and substrate are supplied by Promega. Cells are plated at 25,000 cells/well in 384-well plates in a final volume of 50 μl of media. Cells are allowed to adhere to the plates after overnight (18 hours) culture at 37° C. and 5% CO2. Serially-diluted experimental and positive control compounds are then dispensed to each well and incubated for 7 hours at 37° C. and 5% CO2. Cells stimulated with DMSO alone serve as negative controls. After the incubation, 30 μl of the pre-mix assay buffer and substrate buffer are added to each well according to manufacturer's instructions. The luminescence signal is read on a CLIPR machine with an integration time of 20 seconds per plate.

serum cytokines = conditions: in vivo
[4] = Adsorption to aluminium hydroxide (Al—H) adjuvant, supernatant by HPLC; assay type: physicochemical; conditions: for % adsorption to Al—H: 10 mM histidine buffer, pH 6.5; for Adsorption Efficiency to aluminum hydroxide: 3 mg/mL aluminum hydroxide, 0.5 mg/mL compound, no buffer, room temperature overnight, RP-HPLC
splenocytes = experiment: Activity in splenocytes; assay type: cell-based
[5] = Model of in vivo desorption from Al—H; assay type: in vitro ADME; conditions: 37° C., after 5 hours
[6] = Association with Al—H particles by confocal microscopy and flow cytometry; assay type: physicochemical; conditions: confocal microscopy (compound 1) or flow cytometry (compounds 2, O)
[7] = 5CVMB, CD-1 mice, days 0 & 14, (b) the agonist compound
[8] = SIF (simulated interstitial fluid)

SMILES: CCCCCNc1nc(N)nc(C)c1Cc1ccc(OCCOCCC(F)(F)P(=O)(O)O)cc1OC [Compound 71, (3-(2-(4-((2-amino-4-methyl-6-(pentylamino)pyrimidin-5-yl)methyl)-3-methoxyphenoxy)ethoxy)-1,1-difluoropropyl)phosphonic Acid]
- activity compared to resiquimod (set to 100%) (human PBMCs): 50%
- EC50 (human PBMCs; PBMC, read-out: EC50): 9.5 µM
- level of compound in muscle ([1]; +Al—H): readily detected
- level of compound in muscle ([1]; without Al—H (free form)): undetectable
- SBA titer at day 28 [2, 7]: 65
- SBA titer at day 28 ([2]; in vivo): 1653
- solubility in histidine buffer [3]: soluble
- activity compared to resiquimod (set to 100%) (human TLR7): 53%
- systemic cytokines, effect of adsorption to Al—H (serum cytokines): generally reduced or unaffected
- % adsorption to Al—H [4]: 85%
- activity compared to resiquimod (set to 100%) (splenocytes): 239%
- EC50 (splenocytes; Splenocyte, read-out: EC50): 10.5 µM

SMILES: Cc1ccc2c(c1)nc(N)c1ncc(CCc3ccc(OP(=O)(O)O)cc3C)cc12 [Compound 102]
- Adsorption Efficiency to aluminum hydroxide [4]: 85.1%
- Adsorption Efficiency to aluminum hydroxide ([4]; listed as compound 102): > 80%

SMILES: Cc1cc(OCCOCCOCCC(F)(F)P(=O)(O)O)ccc1CCc1cnc2c(N)nc3cc(CCC(=O)O)ccc3c2c1 [Compound 4]
- proportion desorbed from Al—H ([5]; His buff): 4%
- proportion desorbed from Al—H ([5]; Plasma/His buff): 81%
- proportion desorbed from Al—H [5, 8]: 100%
- compound in supernatant after mixing with aluminium hydroxide (HPLC) [4]: neither compound is observed in the supernatant
- % adsorption to Al—H [4]: 96.0%

SMILES: CCCCCNc1nc(N)nc(C)c1Cc1ccc(CP(=O)(O)O)cc1 [Compound 69]
- EC50 (human PBMCs): inactive
- solubility in histidine buffer [3]: insoluble
- activity compared to resiquimod (set to 100%) (human TLR7): 36%
- EC50 (splenocytes): inactive

SMILES: Cc1cc(OCCCC(F)(F)P(=O)(O)O)ccc1CCc1cnc2c(N)nc3cc(CCC(=O)O)ccc3c2c1 [Compound 3]
- proportion desorbed from Al—H ([5]; His buff): 5%
- proportion desorbed from Al—H ([5]; Plasma/His buff): 49%
- proportion desorbed from Al—H [5, 8]: 100%
- compound in supernatant after mixing with aluminium hydroxide (HPLC) [4]: neither compound is observed in the supernatant
- % adsorption to Al—H [4]: 96.2%

SMILES: CCOCc1nc2c(N)nc3ccccc3c2n1CCOCCP(=O)(O)O [Compound 7]
- EC50 (human PBMCs): inactive
- solubility in histidine buffer [3]: insoluble
- activity compared to resiquimod (set to 100%) (human TLR7): 55%
- EC50 (splenocytes): inactive

SMILES: CCOCc1nc2c(N)nc3ccccc3c2n1CC(C)(C)O [resiquimod, reference compound]
- SBA titer at day 28 ([2]; 5CVMB, CD-1 mice, days 0 & 14, (e) resiquimod+Al—H, positive control): 1033

SMILES: CCCCCNc1nc(N)nc(C)c1Cc1ccc(CP(=O)(O)O)cc1OC [Compound 8]
- activity compared to resiquimod (set to 100%) (human PBMCs): 50%
- EC50 (human PBMCs; PBMC, read-out: EC50): 10.4 µM
- solubility in histidine buffer [3]: insoluble
- activity compared to resiquimod (set to 100%) (human TLR7): 81%
- activity compared to resiquimod (set to 100%) (splenocytes): 184%
- EC50 (splenocytes; Splenocyte, read-out: EC50): 3.1 µM

- association with Al—H particles [6]: seen as a separate population
- % adsorption to Al—H [4]: fails to adsorb
SMILES: Cc1ccc(CCc2cnc3c(N)nc4cc(C)ccc4c3c2)c(C)c1 [O, reference compound]

SMILES: CCOCc1nc2c(N)nc3ccccc3c2n1CCOCCOCCOCCP(=O)(O)O [Compound 68, (2-(2-(2-(2-(4-amino-2-(ethoxymethyl)-1H-imidazo[4,5-c]quinolin-1-yl)ethoxy)ethoxy)ethoxy)ethyl)phosphonic Acid]
- EC50 (human PBMCs): inactive
- level of compound in muscle ([1]; +Al—H): readily detected
- level of compound in muscle ([1]; without Al—H (free form)): undetectable
- SBA titer at day 28 ([2]; in vivo): 404
- solubility in histidine buffer [3]: soluble
- activity compared to resiquimod (set to 100%) (human TLR7): 75%
- systemic cytokines, effect of adsorption to Al—H (serum cytokines): generally reduced or unaffected
- % adsorption to Al—H [4]: 94%
- EC50 (splenocytes): inactive

SMILES: COCCOc1cc2c(nc(O)n2Cc2ccc(CP(=O)(O)O)cc2)c(N)n1 [Compound 67, (4-((4-amino-6-(2-methoxyethoxy)-2-oxo-2,3-dihydro-1H-imidazo[4,5-c]pyridin-1-yl)methyl)benzyl)phosphonic Acid]
- activity compared to resiquimod (set to 100%) (human PBMCs): 59%
- EC50 (human PBMCs; PBMC, read-out: EC50): 0.8 µM
- level of compound in muscle ([1]; +Al—H): readily detected
- level of compound in muscle ([1]; without Al—H (free form)): undetectable
- SBA titer at day 28 [2, 7]: 64
- SBA titer at day 28 ([2]; in vivo): 949
- solubility in histidine buffer [3]: soluble
- activity compared to resiquimod (set to 100%) (human TLR7): 103%
- systemic cytokines, effect of adsorption to Al—H (serum cytokines): generally reduced or unaffected
- % adsorption to Al—H [4]: 82%
- activity compared to resiquimod (set to 100%) (splenocytes): 142%
- EC50 (splenocytes; Splenocyte, read-out: EC50): 9.3 µM

SMILES: COCCOc1nc(N)c2nc(O)n(Cc3ccc(CP(=O)(O)O)cc3)c2n1 [Compound 6, (4-((6-amino-2-(2-methoxyethoxy)-8-oxo-7H-purin-9(8H)-yl)methyl)benzyl)phosphonic Acid]
- activity compared to resiquimod (set to 100%) (human PBMCs): 35%
- EC50 (human PBMCs; PBMC, read-out: EC50): 1 µM
- level of compound in muscle ([1]; without Al—H (free form)): undetectable
- compound in inguinal lymph nodes or liver ([1]; after 24 hours): could not be detected
- SBA titer at day 28 [2, 7]: 282
- SBA titer at day 28 ([2]; in vivo): 4016
- solubility in histidine buffer [3]: soluble
- activity compared to resiquimod (set to 100%) (human TLR7): 93%
- activity compared to resiquimod (set to 100%) (splenocytes): 210%
- EC50 (splenocytes; Splenocyte, read-out: EC50): 0.98 µM
